A short description of experiment [1]: Induction of singlet oxygen generation in DMSO solution assessed as singlet oxygen quantum yield by measuring reduction in DPBF irradiated with 650 nanometer laser light. Format: functional.
The nature of experiment [2]: Induction of singlet oxygen generation in TBS solution assessed as singlet oxygen quantum yield by measuring reduction in ADMA irradiated with 650 nanometer laser light. Format: functional.

Drawing on ChEMBL document CHEMBL4406848, “Novel water soluble BODIPY compounds: Synthesis, photochemical, DNA interaction, topoisomerases inhibition and photodynamic activity properties” (Eur J Med Chem, 2019), this text covers Activity for one compound.

Turning to `CN(C)c1ccc2nc3ccc(=[N+](C)C)cc-3sc2c1`, the Activity in experiment [1] turned out to be 0.57; in experiment [2], 0.52.
